In PMC9256669, “Monomethyl auristatin antibody and peptide drug conjugates for trimodal cancer chemo-radio-immunotherapy” (Nature Communications, 2022):
“And” between values parts separate entries of the source, which are not always exact repeats. Equal entries are not always repeated. Non-standard residues stand in square brackets, D forms with d. Residues, ends and D or L forms follow the SMILES beside them. *: point of attachment. Dolaproine = CO[C@@H]([C@@H]1CCCN1)[C@@H](C)C(=O)O; Dil = CC[C@H](C)[C@H](NC)[C@@H](CC(=O)O)OC; X1 = C[C@@H](N*)[C@@H](O)c1ccccc1; NMeV = CN[C@H](C(=O)O)C(C)C

Legend:
[1] = Blood clearance of Cy5-labeled CDX3379-MMAE (blood Cy5); type: in vivo, Nude mice; conditions: immune-deficient and immune-competent mice, i.v. Cy5-labeled CDX3379-MMAE, Cy5 as surrogate marker
Experimental: All animal work was done in compliance with the University of California San Diego Institutional Animal Use and Care Committee under protocol #S15290. Mice were housed in individually ventilated and micro-isolator cages supplied with acidified water and fed 5053 irradiated PicoLab Rodent Diet 20. Temperature for laboratory mice in housing was 18–23 °C with humidity 40–60%. Housing room is maintained on a 12-h light/dark cycle. […] For imaging, mice were anesthetized (1:1 mixture of 100 mg/ml of ketamine and 5 mg/ml of midazolam). Animals were imaged using a Maestro Small Animal Imager (CRI) with excitation filter of 607/36 and 633 nm long pass emission filter with dichroic filter tuned to 670 nm for Cy5 images only. Imaging was done both with skin on and after skin removal to decrease autofluorescence and scattering. Exposure time for Cy5 signal capture for tumor models was as follows: CAL27 for 800 ms, MOC1 for 200 ms and MOC2 for 1500 ms.

MOC1 tumors = test: Subcutaneous tumor therapy, ADC monotherapy, mouse survival; type: in vivo, C57BL/6 mice
Experimental: MOC1, B16, LL/2, and MC38 tumor cells were injected subcutaneously into the hindlimbs of 6-week-old female C57BL/6 albino mice in 100 µl of 1:1 Matrigel (BD) and PBS solution. Fractionated IR was delivered focally to the tumor-bearing hindlimbs (3 Gy to MC38 tumors and 5 Gy to LL/2 and B16 tumors) as indicated in figure legends using a PXI X-RAD 225 XL irradiator at maximal dose rate of 3 Gy/min with a beam-conditioning aluminum filter (Precision X-ray Irradiation). For RAG1 KO studies, 6-week-old female Rag1^tm1Mom mice were injected subcutaneously with tumor cells in their hindlimbs (Jackson Labs). For CD8 depletion studies, mice were i.p. injected with anti-CD8 (BioXCell #BE0117) at 10 mg/kg on days −6, −5 and −4 tumor cell implant and then weekly starting on day after tumor cells were injected or control antibody. […] Tumor volumes were measured and calculated using the formula as ½ * length * width^2. Mice were sacrificed when tumor volume reached >1500 mm^3, maximal tumor volume approved on our protocol for subcutaneous tumors.

[2] = Pilot dose studies of CDX3379-MMAE ADC (response to reviewers); type: in vivo
Experimental: compares to MMAE in immune-competent cancer models. We have now tested the hypothesis raised by the Reviewer head on and present new data (Fig. 3h). First, we successfully synthesized a CDX3379-MMAF ADC (Supplementary Figs. 2c & 2d). Then, we tested CDX3379-MMAE + IR to […] directly in B16 […]
these findings, we hypothesize that MMAE mediated bystander effects improve radiosensitized tumor control when compared to MMAF tumor cell radiosensitization and continue with MMAE as our lead radiosensitizing […]
Comment 2: “authors claim that in syngeneic model MMAE lacked therapeutic efficacy irrespective of the coupled tumor-directed delivery vehicle. However, comparison here is misleading, as they compare MMAE activity coupled to an antibody vs a penetrating peptide. Instead, in order to fully address the concept that auristatin MMAE has limited antitumor activity in a syngeneic model a more appropriate control should be used, that is a MMAE coupled to a different mAb targeting other antigen (receptor). In addition, this would reinforce the evidence about the potential of ADC therapy in combination with IR in immunocompetent mouse […]
Response: In principle, we agree with the sentiment raised by the Reviewer to have another ADC targeting a different cell surface receptor. […]

B16 cells = test: Clonogenic survival with MMAE and 2 Gy (SF2); type: cell-based, murine; design: key to SF2: fraction surviving 2 Gy relative to non-irradiated cells; conditions: for SF2: Figure 3d, six single replicates
Experimental: Cells were treated with MMAE for 24 h and then irradiated with 2 Gy. […] Following IR, cells were counted, re-plated at varying cell numbers in drug free media. 10–14 days after initial seeding formed colonies were methanol fixed, stained with crystal violet, and counted. Surviving fraction at 2 Gy (SF2) was calculated as the fraction of cells surviving 2 Gy compared to non-irradiated cells.

## CDX3379-MMAE: anti-HER3 antibody CDX3379 with 4 MMAE per antibody via MC-VC-PABC linker, labeled with Cy5
[1]
  time at which blood Cy5 signal returned to background fluorescence: ≤ 7 days
MOC1 tumors
  anti-tumor activity as measured by mouse survival: modest anti-tumor activity
[2]; 1 nmole CDX3379-MMAE
  anti-tumor activity in pilot studies: ineffective
[2]; 5 nmoles CDX3379-MMAE
  anti-tumor activity in pilot studies: anti-tumor activity

## CC[C@H](C)[C@@H]([C@@H](CC(=O)N1CCC[C@H]1[C@H](OC)[C@@H](C)C(=O)N[C@H](C)[C@@H](O)c1ccccc1)OC)N(C)C(=O)[C@@H](NC(=O)[C@@H](NC)C(C)C)C(C)C [MMAE, monomethyl auristatin E] (H-[NMeV]V[Dil][Dolaproine]-X1)
B16 cells; MMAE 1 nM with 2 Gy
  SF2: 0.93 and 0.7 and 0.72 and 0.83 and 0.98
B16 cells; MMAE 2 nM with 2 Gy
  SF2: 0.57 and 0.61 and 0.48 and 0.63 and 0.74
B16 cells; MMAE 3 nM with 2 Gy
  SF2: 0.68 and 0.71 and 0.65 and 0.5 and 0.56
B16 cells; murine tumor cells, single nanomolar doses of MMAE, 2 Gy
  radiosensitization, clonogenic cell death: sensitized murine tumor cells to IR-mediated clonogenic cell death
